Reference: patent US20210024455A1 (priority 2018, published 2021)

Assays:
TRF2 = biological target: T1, TRF2 (Homo sapiens, UniProt Q15554); assay: biochemical; assay type: binding; settings: read-out: inhibition rate (%) in DSE FRET assay
T1 sequence (Q15554 1-542): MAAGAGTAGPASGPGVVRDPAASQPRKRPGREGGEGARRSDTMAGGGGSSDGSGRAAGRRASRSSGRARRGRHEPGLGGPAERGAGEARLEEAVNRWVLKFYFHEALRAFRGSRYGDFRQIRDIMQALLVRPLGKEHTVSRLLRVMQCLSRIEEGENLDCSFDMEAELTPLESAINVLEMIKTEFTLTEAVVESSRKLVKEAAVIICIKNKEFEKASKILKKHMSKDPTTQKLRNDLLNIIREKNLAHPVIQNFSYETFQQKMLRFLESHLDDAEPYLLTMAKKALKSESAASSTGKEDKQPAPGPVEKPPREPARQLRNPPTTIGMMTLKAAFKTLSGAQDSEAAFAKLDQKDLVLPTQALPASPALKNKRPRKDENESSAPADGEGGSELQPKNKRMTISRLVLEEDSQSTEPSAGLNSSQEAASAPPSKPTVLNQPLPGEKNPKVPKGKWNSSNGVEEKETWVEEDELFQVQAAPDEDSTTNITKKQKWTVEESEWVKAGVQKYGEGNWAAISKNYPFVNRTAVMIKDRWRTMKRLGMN

HeLa1.2.11 cells = assay: cells; assay type: cell-based; settings: read-out: IC50, suppressing proliferation of HeLa1.2.11 cells

Structure (SMILES)	inhibition at 50 µM (TRF2) [%]	IC50 (HeLa1.2.11 cells) [µM]
O=[N+]([O-])c1cc([N+](=O)[O-])c(Oc2ccccc2N(c2ccccc2)c2ccccc2)c([N+](=O)[O-])c1 [compound 144]	38.3	31
Cc1ccc(N(c2ccccc2)c2ccccc2Oc2c([N+](=O)[O-])cc([N+](=O)[O-])cc2[N+](=O)[O-])cc1 [compound 145]	38.7	26
CC(=O)c1ccc(N(c2ccccc2)c2ccccc2Oc2c([N+](=O)[O-])cc([N+](=O)[O-])cc2[N+](=O)[O-])cc1 [compound 168]	25.5	43
CC(=O)c1ccc(N(c2ccc(C(C)=O)cc2)c2ccccc2Oc2c([N+](=O)[O-])cc([N+](=O)[O-])cc2[N+](=O)[O-])cc1 [compound 171]	24.7	48
CC(C)(C)c1ccc(Oc2c([N+](=O)[O-])cc([N+](=O)[O-])cc2[N+](=O)[O-])c(N(c2ccccc2)c2ccccc2)c1 [compound 192]	33.6	24
CC(=O)c1ccc(N(c2ccccc2)c2cc(C(C)(C)C)ccc2Oc2c([N+](=O)[O-])cc([N+](=O)[O-])cc2[N+](=O)[O-])cc1 [compound 201]	23	15
COc1ccc(N(c2ccccc2)c2ccccc2Oc2c([N+](=O)[O-])cc([N+](=O)[O-])cc2[N+](=O)[O-])cc1 [compound 204]	20.4	20
CC(=O)c1ccc(N(c2ccc(C)cc2)c2ccccc2Oc2c([N+](=O)[O-])cc([N+](=O)[O-])cc2[N+](=O)[O-])cc1 [compound 225]	36.9	28
CC(=O)c1ccc(N(c2ccc(C(C)(C)C)cc2)c2ccccc2Oc2c([N+](=O)[O-])cc([N+](=O)[O-])cc2[N+](=O)[O-])cc1 [compound 227]	18.4	18
Cc1cc([N+](=O)[O-])cc([N+](=O)[O-])c1Oc1ccccc1N(c1ccccc1)c1ccc(C(C)(C)C)cc1 [compound 228]	11.8	20
COc1ccc(N(c2ccccc2)c2cc(C(C)(C)C)ccc2Oc2c([N+](=O)[O-])cc([N+](=O)[O-])cc2[N+](=O)[O-])cc1 [compound #207]	23.7	19
